Source: US10221215B2, “Hydrogen bond surrogate macrocycles as modulators of Ras” (New York University, priority 2011, dated 2019)
Non-standard residues stand in square brackets, D forms with d. Residues, ends and D or L forms follow the SMILES beside them. Aib = CC(C)(N)C(=O)O

Assay: Solubility of peptides and HBS helices
Type: physicochemical
Description: Design of Ras/Sos inhibitors was performed starting with the wild-type Sos929-944 α-H sequence. Additional modifications were introduced in order to improve the solubility of the HBS peptides. Charged residues were introduced at positions not involved in Ras binding. Computational alanine scanning was performed on two separate crystal structures (PDB codes: 1NVW and 1BKD) of the Ras/Sos complex to determine other important binding residues in the α-H helix that may be incorporated in the peptide mimetics. Additionally, non-essential β-branched residues (including threonine) in the wild-type α-H sequence were replaced with suitable residues to afford peptides with higher helical content (Table 1), as it was hypothesized that such modifications would improve α-helicity.

Solubility	Compound
partially	CC[C@H](C)[C@H](NC(=O)CN1CC=CCCC(=O)N[C@@H](Cc2ccccc2)C(=O)N[C@@H](CCC(=O)O)C1=O)C(=O)N[C@@H](Cc1ccc(O)cc1)C(=O)N[C@@H](CCCNC(=N)N)C(=O)N[C@H](C(=O)N[C@@H](CC(=O)O)C(=O)N[C@H](C(=O)N[C@@H](CC(C)C)C(=O)N[C@@H](CCCNC(=N)N)C(=O)N[C@H](C(=O)N[C@@H](CCC(=O)O)C(=O)N[C@@H](CCC(=O)O)C(=O)NCC(=O)N[C@@H](CC(N)=O)C(N)=O)[C@@H](C)O)[C@@H](C)CC)[C@@H](C)O [HBS 1]
soluble	CC[C@H](C)[C@H](NC(=O)CN1CC=CCCC(=O)N[C@@H](Cc2ccccc2)C(=O)N[C@@H](CCC(=O)O)C1=O)C(=O)N[C@@H](Cc1ccc(O)cc1)C(=O)N[C@@H](CCCNC(=N)N)C(=O)N[C@H](C(=O)N[C@@H](CCC(=O)O)C(=O)N[C@@H](CC(C)C)C(=O)N[C@@H](CC(C)C)C(=O)N[C@@H](CCCCN)C(=O)N[C@@H](C)C(=O)N[C@@H](CCC(=O)O)C(=O)N[C@@H](CCC(=O)O)C(=O)N[C@@H](C)C(=O)N[C@@H](CC(N)=O)C(N)=O)[C@@H](C)O [HBS 6]
soluble	CC[C@H](C)[C@H](NC(=O)CN1CC=CCCC(=O)N[C@@H](Cc2ccccc2)C(=O)N[C@@H](CCC(=O)O)C1=O)C(=O)N[C@@H](Cc1ccc(O)cc1)C(=O)N[C@@H](CCCNC(=N)N)C(=O)N[C@@H](CC(C)C)C(=O)N[C@@H](CCC(=O)O)C(=O)N[C@@H](CC(C)C)C(=O)N[C@@H](CC(C)C)C(=O)N[C@@H](CCCCN)C(=O)N[C@@H](C)C(=O)N[C@@H](CCC(=O)O)C(=O)N[C@@H](CCC(=O)O)C(=O)N[C@@H](C)C(=O)N[C@@H](CC(N)=O)C(N)=O [HBS 7]
soluble	CC[C@H](C)[C@H](NC(=O)CN1CC=CCCC(=O)N[C@@H](C)C(=O)N[C@@H](CCC(=O)O)C1=O)C(=O)N[C@@H](Cc1ccc(O)cc1)C(=O)N[C@@H](CCCNC(=N)N)C(=O)N[C@@H](CC(C)C)C(=O)N[C@@H](CCC(=O)O)C(=O)N[C@@H](CC(C)C)C(=O)N[C@@H](CC(C)C)C(=O)N[C@@H](CCCCN)C(=O)N[C@@H](C)C(=O)N[C@@H](CCC(=O)O)C(=O)N[C@@H](C)C(=O)N[C@@H](C)C(=O)N[C@@H](C)C(N)=O [HBS 7^mut]
soluble	CC[C@H](C)[C@H](NC(=O)CN1CC=CCCC(=O)N[C@@H](Cc2ccccc2)C(=O)N[C@@H](CCC(=O)O)C1=O)C(=O)N[C@@H](Cc1ccc(O)cc1)C(=O)N[C@@H](CCCNC(=N)N)C(=O)N[C@@H](CC(C)C)C(=O)N[C@@H](CCC(=O)O)C(=O)N[C@@H](CC(C)C)C(=O)N[C@@H](CC(C)C)C(=O)N[C@@H](CCCCN)C(N)=O [HBS 8]
soluble	CC(C)C[C@H](NC(=O)CN1CC=CCCC(=O)N[C@@H](Cc2ccccc2)C(=O)N[C@@H](CCC(=O)O)C1=O)C(=O)N[C@@H](CC(C)C)C(=O)N[C@@H](CCCNC(=N)N)C(=O)N[C@@H](CC(C)C)C(=O)N[C@@H](Cc1c[nH]c2ccccc12)C(=O)N[C@@H](CC(C)C)C(=O)N[C@@H](CCCNC(=N)N)C(=O)N[C@@H](CCCCN)C(=O)NC(C)(C)C(=O)N[C@@H](CCC(=O)O)C(=O)N[C@@H](CCC(=O)O)C(=O)N[C@@H](C)C(=O)N[C@@H](CC(N)=O)C(N)=O [HBS 9]
soluble	CC(C)C[C@H](NC(=O)CN1CC=CCCC(=O)N[C@@H](Cc2ccccc2)C(=O)N[C@@H](CCC(=O)O)C1=O)C(=O)N[C@@H](CC(C)C)C(=O)N[C@@H](CCCNC(=N)N)C(=O)N[C@@H](CC(C)C)C(=O)N[C@@H](Cc1c[nH]c2ccccc12)C(=O)N[C@@H](CC(C)C)C(=O)N[C@@H](CCCNC(=N)N)C(=O)N[C@@H](CCCCN)C(=O)NC(C)(C)C(=O)N[C@@H](CCC(=O)O)C(=O)N[C@@H](CCC(=O)O)C(=O)NC(C)(C)C(=O)N[C@@H](CC(N)=O)C(N)=O [HBS 10]
soluble	CC[C@H](C)[C@H](NC(=O)CN1CC=CCCC(=O)N[C@@H](Cc2ccccc2)C(=O)N[C@@H](CCC(=O)O)C1=O)C(=O)N[C@@H](Cc1ccc(O)cc1)C(=O)N[C@@H](CCCNC(=N)N)C(=O)N[C@@H](CC(C)C)C(=O)N[C@@H](CCC(=O)O)C(=O)N[C@@H](CC(C)C)C(=O)N[C@@H](CC(C)C)C(=O)N[C@@H](CCCCN)C(=O)NC(C)(C)C(=O)N[C@@H](CCC(=O)O)C(=O)N[C@@H](CCC(=O)O)C(=O)NC(C)(C)C(=O)N[C@@H](CC(N)=O)C(N)=O [HBS 11]
soluble	CC(C)C[C@H](NC(=O)CN1CC=CCCC(=O)N[C@@H](Cc2ccccc2)C(=O)N[C@@H](CCC(=O)O)C1=O)C(=O)N[C@@H](CC(C)C)C(=O)N[C@@H](CCCNC(=N)N)C(=O)N[C@@H](CC(C)C)C(=O)N[C@@H](Cc1c[nH]c2ccccc12)C(=O)N[C@@H](CC(C)C)C(=O)N[C@@H](CCCNC(=N)N)C(=O)N[C@@H](CCCCN)C(=O)N[C@@H](C)C(=O)N[C@@H](CCC(=O)O)C(=O)N[C@@H](CCC(=O)O)C(=O)N[C@@H](C)C(=O)N[C@@H](CC(N)=O)C(N)=O [HBS 12]
soluble	CC[C@H](C)[C@H](NC(=O)[C@H](C)N1CC=CCCC(=O)N[C@@H](Cc2ccccc2)C(=O)N[C@@H](CCC(=O)O)C1=O)C(=O)N[C@@H](Cc1ccc(O)cc1)C(=O)N[C@@H](CCCNC(=N)N)C(=O)N[C@@H](CC(C)C)C(=O)N[C@@H](CCC(=O)O)C(=O)N[C@@H](CC(C)C)C(=O)N[C@@H](CC(C)C)C(=O)N[C@@H](CCCCN)C(=O)N[C@@H](C)C(=O)N[C@@H](CCC(=O)O)C(=O)N[C@@H](CCC(=O)O)C(=O)N[C@@H](C)C(=O)N[C@@H](CC(N)=O)C(N)=O [HBS 13]
soluble	CC[C@H](C)[C@H](NC(=O)[C@H](C)N1CC=CCCC(=O)N[C@@H](Cc2ccccc2)C(=O)N[C@@H](CCC(=O)O)C1=O)C(=O)N[C@@H](Cc1ccc(O)cc1)C(=O)N[C@@H](CCCNC(=N)N)C(=O)N[C@@H](CC(C)C)C(=O)N[C@@H](CCC(=O)O)C(=O)N[C@H]1CCCCNC(=O)CC[C@@H](C(=O)N[C@@H](CCC(=O)O)C(=O)N[C@@H](C)C(=O)N[C@@H](CC(N)=O)C(N)=O)NC(=O)[C@H](C)NC(=O)[C@H](CCCCN)NC(=O)[C@H](CC(C)C)NC1=O [HBS 15]
soluble	CC[C@H](C)[C@H](NC(=O)CN1CC=CCCC(=O)N[C@@H](Cc2ccccc2)C(=O)N[C@@H](CCC(=O)O)C1=O)C(=O)N[C@@H](Cc1ccc(O)cc1)C(=O)N[C@@H](CCCNC(=N)N)C(=O)N[C@@H](CC(C)C)C(=O)N[C@@H](CCC(=O)O)C(=O)N[C@@H](CCCCN)C(=O)N[C@@H](CC(C)C)C(=O)N[C@@H](CCCCN)C(=O)N[C@@H](C)C(=O)N[C@@H](CCC(=O)O)C(=O)N[C@@H](CCC(=O)O)C(=O)N[C@@H](C)C(=O)N[C@@H](CC(N)=O)C(=O)N[C@@H](CCCNC(=N)N)C(=O)N[C@@H](CCCNC(=N)N)C(N)=O [HBS 16]
soluble	CC(=O)N[C@@H](Cc1ccccc1)C(=O)N[C@@H](CCC(=O)O)C(=O)NCC(=O)N[C@@H](CC(C)C)C(=O)N[C@@H](CC(C)C)C(=O)N[C@@H](CCCNC(=N)N)C(=O)N[C@@H](CC(C)C)C(=O)N[C@@H](Cc1c[nH]c2ccccc12)C(=O)N[C@@H](CC(C)C)C(=O)N[C@@H](CCCNC(=N)N)C(=O)N[C@@H](CCCCN)C(=O)NC(C)(C)C(=O)N[C@@H](CCC(=O)O)C(=O)N[C@@H](CCC(=O)O)C(=O)NC(C)(C)C(=O)N[C@@H](CC(N)=O)C(N)=O [Peptide 10] (Ac-FEGLLRLWLRK[Aib]EE[Aib]N-NH2; N-terminus assumed)
soluble	CC[C@H](C)[C@H](NC(=O)CNC(=O)[C@H](CCC(=O)O)NC(=O)[C@H](Cc1ccccc1)NC(C)=O)C(=O)N[C@@H](Cc1ccc(O)cc1)C(=O)N[C@@H](CCCNC(=N)N)C(=O)N[C@@H](CC(C)C)C(=O)N[C@@H](CCC(=O)O)C(=O)N[C@@H](CC(C)C)C(=O)N[C@@H](CC(C)C)C(=O)N[C@@H](CCCCN)C(=O)NC(C)(C)C(=O)N[C@@H](CCC(=O)O)C(=O)N[C@@H](CCC(=O)O)C(=O)NC(C)(C)C(=O)N[C@@H](CC(N)=O)C(N)=O [Peptide 11] (Ac-FEGIYRLELLK[Aib]EE[Aib]N-NH2; N-terminus assumed)
partially	Ac-AEGIYRADILRTEEGN-NH2 (N-terminus assumed) [Peptide 4]
partially	Ac-AEGIYRTDILRTEEGN-NH2 (N-terminus assumed) [Peptide 3]
soluble	Ac-FEAIYRLEKLKAEEAN-NH2 (N-terminus assumed) [Peptide 15]
soluble	Ac-FEAIYRLELLKAEEAN-NH2 (N-terminus assumed) [Peptide 13]
soluble	Ac-FEGIYRLELLK-NH2 (N-terminus assumed) [Peptide 8]
soluble	Ac-FEGIYRLELLKAEEAN-NH2 (N-terminus assumed) [Peptide 7]
soluble	Ac-FEGIYRTDILR-NH2 (N-terminus assumed) [Peptide 5]
partially	Ac-FEGIYRTDILRTEEGN-NH2 (N-terminus assumed) [Peptide 1]
soluble	Ac-FEGIYRTELLKAEEAN-NH2 (N-terminus assumed) [Peptide 6]
soluble	Ac-FEGLLRLWLRKAEEAN-NH2 (N-terminus assumed) [Peptide 12]
partially	Ac-FGEGIYRTDILRTEEGN-NH2 (N-terminus assumed) [Peptide 2]

Compound	Solubility
CC[C@H](C)[C@H](NC(=O)CNC(=O)[C@H](Cc1ccccc1)NC(=O)[C@H](Cc1ccccc1)NC(C)=O)C(=O)N[C@@H](Cc1ccc(O)cc1)C(=O)N[C@@H](CC(C)C)C(=O)N[C@H](C(=O)N[C@@H](CC(N)=O)C(=O)N[C@H](C(=O)N[C@@H](CC(C)C)C(=O)N[C@@H](CCCCN)C(=O)N[C@H](C(=O)N[C@@H](CCC(=O)O)C(=O)N[C@@H](CCC(=O)O)C(=O)NCC(=O)N[C@@H](CC(N)=O)C(N)=O)[C@@H](C)O)[C@@H](C)CC)[C@@H](C)O [wt (Sos929-944), reference compound]	insoluble
